For assay [1], the system named is rat model of coronary ligation. Nature of the assay: Coronary artery ligation (myocardial infarction), mortality. The class given is in vivo. The conditions noted are these: 21 days after coronary occlusion; once daily by gastric tube: P-5-P 10 mg/kg, captopril 100 mg/kg, propranolol 50 mg/kg, verapamil 25 mg/kg, aspirin 100 mg/kg; untreated 35%. The source says: The animals were anesthetized with ether, the skin incised along the left sternal border, the fourth rib cut proximal to the sternum, and retractors inserted. The pericardial sac was perforated and the heart was exteriorized through the intercostal space. The left coronary artery was ligated about 2 mm from its origin with a 6–0 silk suture and the heart was repositioned in the chest.
Rats are anesthetized with 1–5% isoflurane in 100% O2 (2 L flow rate). The skin is incised along the left sterna border and the 4th rib is cut proximal to the sternum and a retractor inserted. The pericardial sac is opened and the heart externalized. The left anterior descending coronary artery is ligated approximately 2 mm from its origin on the aorta using a 6–0 silk suture. The heart is then repositioned in the chest and the incision closed via purse-string sutures.
Sham operated rats undergo identical treatment except that the artery is not ligated. […] Unless indicated in the text, the experimental animals showing infarct size >30% of the left ventricle are used in this study. All animals are allowed to recover, allowed to receive food and water ad libitum, and are maintained for a period of 21 days for Electrocardiogram (ECG), hemodynamic, and histological assessment.
While the complete healing of the scar occurs within 3 weeks of the coronary occlusion, mild, moderate and severe stages of congestive heart failure have been reported to occur at 4, 8 and 16 weeks after ligation.
The rats are housed in clear cages in a temperature and humidity controlled room, on a 12 hour light-dark cycle. Food and water are supplied ad libitum. After surgery, rats are randomly assigned to treatment or non-treatment in both sham and experimental groups. Randomization of animals was performed and treatment begins 1 hour after coronary occlusion and continues for 21 days. The total duration of experiments in each case is 21 days. The groups are as follows: • 1) sham operated; • 2) coronary artery ligated (treatment with equal volumes of saline); • 3) coronary artery ligated (treated with 10 mg/kg P-5-P ); • 4) coronary artery ligated (treated with 100 mg/kg captopril); • 5) coronary artery ligated (treated with 50 mg/kg propranolol); • 6) coronary artery ligated (treated with 100 mg/kg aspirin); • 7) coronary artery ligated (treated with 25 mg/kg verapamil); • 8) coronary artery ligated (treated with 10 mg/kg P-5-P+100 mg/kg captopril); • 9) coronary artery ligated (treated with 10 mg/kg P-5-P+50 mg/kg propranolol); • 10) coronary artery ligated (treated with 10 mg/kg P-5-P+100 mg/kg aspirin); • 11) coronary artery ligated (treated with 10 mg/kg P-5-P+25 mg/kg verapamil). […]

The test system of the next assay is isolated rat hearts. Nature of the assay: Ischemia reperfusion in isolated rat hearts (Langendorff), left ventricular pressures. The settings on record: for % recovery (LVDP) / LVEDP / LVSP: 30 min ischemia, 60 min reperfusion; for % recovery (LVDP) / LVEDP / LVSP / LVDP (A) / LVDP (B): P-5-P 15 μM; for LVDP (A): after ischemia (30 min ischemia, 60 min reperfusion); for LVDP (B): before ischemia. The procedure: Male Sprague-Dawley rats weighing 250–300 g are anaesthetized with a mixture of ketamine (60 mg/kg) and xylazine (10 mg/kg).
The left ventricular end diastolic pressure (LVEDP) is adjusted at 10 mmHg at the beginning of the experiment. […] All hearts are stabilized for a period of 30 mm and then randomly distributed into nine different experimental groups (n=5–8 per group). The experimental groups are defined as follows: • 1) Control group (control hearts are further perfused for 90 minutes for a total of […] of continuous perfusion); • 2) Ischemia reperfusion group (Ischemia reperfusion hearts are made globally ischemic by stopping the coronary flow completely for 30 mm and then the hearts are reperfused for 60 mm); • 3) P-5-P (15 μM) treated group; • 4) captopril (100 μM) treated group; • 5) verapamil (0.01 μM)) treated group; […]) treated group; […]) treated group; • 8) P-5-P+captopril treated group; • 9) P-5-P+verapamil treated group; • 10) P-5-P+propranolol treated group; • 11) P-5-P+PPADS treated group.
Drug treatment is started 10 min before global ischemia followed by 30 min global ischemia and 60 min reperfusion. At the end of some experiments, the hearts are quickly freeze-clamped with a liquid nitrogen precooled Wollenberger tong. Rats are housed in clear cages in a temperature and humidity controlled room on a 12 hr light-dark cycle. Food and water are supplied ad libitum.

The subject of assay [2] is rat model of coronary ligation. Kind of assay: Hemodynamic changes, heart and scar weight after coronary artery ligation. In kind it is in vivo. The settings on record: 21 days after coronary occlusion. The procedure: The rats are housed in clear cages in a temperature and humidity controlled room, on a 12 hour light-dark cycle. Food and water are supplied ad libitum. After surgery, rats are randomly assigned to treatment or non-treatment in both sham and experimental groups. Randomization of animals was performed and treatment begins 1 hour after coronary occlusion and continues for 21 days. The total duration of experiments in each case is 21 days. The groups are as follows: • 1) sham operated; • 2) coronary artery ligated (treatment with equal volumes of saline); • 3) coronary artery ligated (treated with 10 mg/kg P-5-P ); • 4) coronary artery ligated (treated with 100 mg/kg captopril); • 5) coronary artery ligated (treated with 50 mg/kg propranolol); • 6) coronary artery ligated (treated with 100 mg/kg aspirin); • 7) coronary artery ligated (treated with 25 mg/kg verapamil); • 8) coronary artery ligated (treated with 10 mg/kg P-5-P+100 mg/kg captopril); • 9) coronary artery ligated (treated with 10 mg/kg P-5-P+50 mg/kg propranolol); • 10) coronary artery ligated (treated with 10 mg/kg P-5-P+100 mg/kg aspirin); • 11) coronary artery ligated (treated with 10 mg/kg P-5-P+25 mg/kg verapamil).
P-5-P (10 mg/kg), captopril (100 mg/kg), propranolol (50 mg/kg), verapamil (25 mg/kg) and aspirin (100 mg/kg) were administered once daily by gastric tube.
The animals are prepared and grouped as described in Example 10 and were anesthetized with a solution of ketamine/xylazine which was injected. To maintain adequate ventilation, the trachea was intubated; the right carotid artery was exposed for introducing a microtip pressure transducer (model SPR-249, Millar, Houston, Tex.) into the left ventricle. The catheter was secured with a silk ligature around the artery, and various hemodynamic parameters such as left ventricular systolic pressure (LVSP), left ventricular end diastolic pressure (LVEDP), rate of contraction (+dp/dt), rate of relaxation (−dP/dt) were recorded and calculated on a computer system using a Acknowledge 3.1 software.
Once the hemodynamic parameters were measured the animals were sacrificed and hearts removed for measurement of heart weight, right ventricular weight, left ventricular weight and scar weight. Because complete healing of the scar in rats after coronary occlusion requires approximately 3 weeks, scar weight were measured only at 21 days.

Assay [3] concerns 10% sucrose induced hypertension in rats. Kind of assay: 10% sucrose induced hypertension, systolic blood pressure (tail cuff). In kind it is in vivo, rat. An excerpt:
Zein et al., in their publication entitled Sugar-Induced Blood Pressure Elevations Over the Lifespan of Three Substrains of Wistar Rats in Am. Coll. […] Hulman et al. in their publication entitled The Effect of Excess Dietary Sucrose on Growth, Blood Pressure, and Metabolism in Developing Sprague-Dawley Rats in Pediatr. […] Reaven et al., in their publication entitled Sugar-Induced Hypertension in Sprague-Dawley Rats in Am.
The blood pressure is monitored using the tail cuff method. The SBP is detected on an amplifier and the Acknowledge™ computer software program is used to determine the calculations.
The effect of concurrent administration of pyridoxal-5′-phosphate and captopril or verapamil on systolic blood pressure (marker of hypertension) in 10% sucrose induced hypertension in rats is determined.

Values joined by “and” are separate entries in the source; they are usually repeats but may differ in a detail not shown here. Identical values can stand only once.

The record followed here is patent publication US7125889B2, “Treating of cardiovascular and related pathologies” (Medicure International Inc., priority 1999, dated 2006).

Consider `C[C@H](CS)C(=O)N1CCC[C@H]1C(=O)O` [Captopril, captopril, reference compound], for which the mortality rate in assay [1] is on record as 15%. Also, in the assay with isolated rat hearts (Captopril 100 μM), the “% recovery (LVDP)” value worked out at 61.4 ± 5.2 %, the LVEDP is 54 ± 6.7 mmHg, the LVSP is recorded as 101 ± 14.6 mmHg and the “LVDP (A)” value is 47 ± 8.6. The “LVDP (B)” value with isolated rat hearts (Captopril 100 μM) is on record as 78 ± 10.9. In the assay with isolated rat hearts (Captopril 100 μM, listed as captopril), the “% recovery (LVDP)” value is on record as 61.4%.
Take `Cc1ncc(COP(=O)(O)O)c(C=O)c1O` [Example P5P, pyridoxal-5′-phosphate]: the mortality rate in assay [1] was 15% and 10%. For the same compound, in assay [2] (FIGS. 5-8), the “effect on scar weight” value was “significant beneficial effect”. Moreover, in assay [2] (FIGS. 9-12), the “effect on rate of contraction (+dP/dt)” value is “significant beneficial effect”. Moreover, the “effect on left ventricular end diastolic pressure (LVEDP)” value in assay [2] (FIGS. 17-20) is recorded as “significant beneficial effect”. The “effect on whole heart weight” value in assay [2] (FIGS. 21-24) was “significant beneficial effect”. Also, the “effect on right ventricular weight” value in assay [2] (FIGS. 25-28) is listed as “significant beneficial effect”. The “% recovery (LVDP)” value is on record as 78.2 ± 3.3 % with isolated rat hearts (Captopril 100 μM); 78.2% with isolated rat hearts (Captopril 100 μM, listed as P-5-P); 78.2 ± 3.3% in the assay on isolated rat hearts (PPADS 100 μM); 78.2% in the assay with isolated rat hearts (PPADS 100 μM, listed as P-5-P); 78.2 ± 3.3 % in the assay with isolated rat hearts (Propranolol 3 μM); 78.2% in the assay with isolated rat hearts (Propranolol 3 μM, listed as P-5-P). Moreover, the “% recovery (LVDP)” value in the assay with isolated rat hearts (Verapamil 0.01 μM) amounted to 78.2 ± 3.3 %; in the assay with isolated rat hearts (Verapamil 0.01 μM, listed as P-5-P), 78.2%. Also, the LVEDP with isolated rat hearts (Captopril 100 μM), in the assay on isolated rat hearts (PPADS 100 μM), with isolated rat hearts (Propranolol 3 μM) and in the assay on isolated rat hearts (Verapamil 0.01 μM) was 35 ± 4.8 mmHg throughout. Also, the LVSP with isolated rat hearts (Captopril 100 μM), with isolated rat hearts (PPADS 100 μM), with isolated rat hearts (Propranolol 3 μM) and in the assay on isolated rat hearts (Verapamil 0.01 μM) was 98 ± 8.2 mmHg each time. Moreover, the “LVDP (A)” value in the assay on isolated rat hearts (Captopril 100 μM), in the assay on isolated rat hearts (PPADS 100 μM), in the assay on isolated rat hearts (Propranolol 3 μM) and in the assay on isolated rat hearts (Verapamil 0.01 μM) was 63 ± 5 in each case. Further, the “LVDP (B)” value with isolated rat hearts (Captopril 100 μM), in the assay on isolated rat hearts (PPADS 100 μM), in the assay on isolated rat hearts (Propranolol 3 μM) and with isolated rat hearts (Verapamil 0.01 μM) was 80 ± 3.8 in each case. Moreover, the “benefit in ischemia reperfusion injury” value with isolated rat hearts (given alone, summary of Tables I-IV) is listed as “significant benefit”. The “effect on systolic blood pressure” value in assay [3] (treatment 1 week prior to inducing hypertension with a sucrose diet, FIGS. 29A, 29B) was “significant beneficial effect”; in assay [3] (treatment the same day as inducing hypertension with a sucrose diet, FIGS. 30A, 30B), “significant beneficial effect”; in assay [3] (treatment two weeks after inducing hypertension with a sucrose diet, FIGS. 31A, 31B) it was “significant beneficial effect”.
`Cc1nc(N=Nc2ccc(S(=O)(=O)O)cc2S(=O)(=O)O)c(COP(=O)(O)O)c(C=O)c1O` [PPADS, pyridoxal phosphate-6-azophenyl-2′,4′-disulphonic acid, reference compound]: in the assay with isolated rat hearts (PPADS 100 μM), the “% recovery (LVDP)” value was 61% and 61 ± 4.8 %; the LVEDP came out at 57 ± 6.3 mmHg; the LVSP is 115 ± 11.5 mmHg; the “LVDP (A)” value is reported as 58 ± 13.6. The “LVDP (B)” value in the assay with isolated rat hearts (PPADS 100 μM) worked out at 92 ± 15.2.
Regarding `CC(C)NCC(O)COc1cccc2ccccc12` (stereo not drawn) [Propranolol, propranolol, reference compound], in the assay with isolated rat hearts (Propranolol 3 μM), the “% recovery (LVDP)” value stood at 74 ± 4.9 %, the LVEDP came out at 27 ± 6.6 mmHg, the LVSP is listed as 72 ± 15.1 mmHg and the “LVDP (A)” value was found to be 45 ± 9.7. The “LVDP (B)” value with isolated rat hearts (Propranolol 3 μM) turned out to be 61 ± 10.8. Moreover, the “% recovery (LVDP)” value in the assay on isolated rat hearts (Propranolol 3 μM, listed as propranolol) worked out at 74%.
The compound `COc1ccc(CCN(C)CCCC(C#N)(c2ccc(OC)c(OC)c2)C(C)C)cc1OC` (stereo not drawn) [Verapamil, verapamil, reference compound] showed a mortality rate in assay [1] of 25%. In the assay on isolated rat hearts (Verapamil 0.01 μM), the “% recovery (LVDP)” value amounted to 43 ± 6.6%, the LVEDP worked out at 55 ± 5.1 mmHg, the LVSP came to 78 ± 7.7 mmHg and the “LVDP (A)” value stood at 23 ± 4.5. The “LVDP (B)” value with isolated rat hearts (Verapamil 0.01 μM) was 54 ± 9.1. In the assay with isolated rat hearts (Verapamil 0.01 μM, listed as verapamil), the “% recovery (LVDP)” value is given as 43%.
For `CC(=O)Oc1ccccc1C(=O)O` [aspirin], the mortality rate in assay [1] is on record as 25%.
